Source: ChEMBL document CHEMBL1201862, “PubChem BioAssay data set” (2004)
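Method: 48-hour compound exposure of cells in 96-well plates, five concentrations, linear interpolation of endpoints. GI50 marks 50% less growth.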 Calls of active or inactive are those of the source. Rule as the data show it: active = GI50 up to about 1.1 µM and inactive = higher.

Columns and labels:
Experiment in all cases: NCI anticancer screen, dose series, 48 h
A549 = test system: A549
CAKI-1 = test system: CAKI-1
CCRF-CEM = test system: CCRF-CEM
COLO 205 = test system: COLO 205
HCC 2998 = test system: HCC 2998
HCT-15 = test system: HCT-15
IGROV-1 = test system: IGROV-1
K562 = test system: K562
OVCAR-3 = test system: OVCAR-3
OVCAR-5 = test system: OVCAR-5
OVCAR-8 = test system: OVCAR-8
RPMI-8226 = test system: RPMI-8226
SF-268 = test system: SF-268
SK-MEL-5 = test system: SK-MEL-5
SNB-19 = test system: SNB-19
EKVX = test system: EKVX
HCT-116 = test system: HCT-116
SK-OV-3 = test system: SK-OV-3
UACC-257 = test system: UACC-257
HT-29 = test system: HT-29

Row | SMILES | GI50 (A549) | GI50 (CAKI-1) | GI50 (CCRF-CEM) | GI50 (COLO 205) | GI50 (HCC 2998) | GI50 (HCT-15) | GI50 (IGROV-1) | GI50 (K562) | GI50 (OVCAR-3) | GI50 (OVCAR-5) | GI50 (OVCAR-8) | GI50 (RPMI-8226) | GI50 (SF-268) | GI50 (SK-MEL-5) | GI50 (SNB-19) | GI50 (EKVX) | GI50 (HCT-116) | GI50 (SK-OV-3) | GI50 (UACC-257) | GI50 (HT-29)
1 | O=C1C2Cc3ccccc3CN2C(=O)N1CN1CCCCC1 (stereo not given) | > 100 µM (inactive) | > 100 µM (inactive) | 43.4 µM (inactive) | > 100 µM (inactive) | > 100 µM (inactive) | 43.6 µM | > 100 µM (inactive) | > 100 µM (inactive) | > 100 µM (inactive) | > 100 µM (inactive) | > 100 µM (inactive) | 31.1 µM (inactive) | > 100 µM (inactive) | > 100 µM (inactive) | > 100 µM (inactive) |  |  |  |  | 
2 | COC(=O)C1CCC(=O)N1/C(C)=N/NC(=O)Nc1ccc(Cl)c(Cl)c1 (stereo not given) | > 100 µM (inactive) | 74.6 µM (inactive) | > 100 µM (inactive) | > 100 µM (inactive) | > 100 µM (inactive) | 14.4 µM | > 100 µM (inactive) | 16.6 µM (inactive) | > 100 µM (inactive) |  | > 100 µM (inactive) | > 100 µM (inactive) | 69.5 µM (inactive) | > 100 µM (inactive) | > 100 µM (inactive) | > 100 µM (inactive) | > 100 µM (inactive) | 43.4 µM (inactive) | > 100 µM (inactive) | 
3 | CCOC(=O)C[C@@H]1C2(C=C[C@@]13CO3)OCC(C)(C)CO2 | > 100 µM (inactive) | > 100 µM (inactive) | > 100 µM (inactive) | > 100 µM (inactive) | > 100 µM (inactive) | > 100 µM | > 100 µM (inactive) | > 100 µM (inactive) | > 100 µM (inactive) | > 100 µM (inactive) | > 100 µM (inactive) |  | > 100 µM (inactive) | > 100 µM (inactive) |  | > 100 µM (inactive) | > 100 µM (inactive) | > 100 µM (inactive) | > 100 µM (inactive) | > 100 µM (inactive)
4 | NC(=O)C1(c2ccccc2)Nc2ccccc2S1 (stereo not given) | > 100 µM (inactive) | > 100 µM (inactive) | > 100 µM (inactive) | > 100 µM (inactive) | > 100 µM (inactive) | > 100 µM |  | > 100 µM (inactive) | > 100 µM (inactive) | > 100 µM (inactive) | > 100 µM (inactive) | > 100 µM (inactive) | > 100 µM (inactive) | > 100 µM (inactive) | > 100 µM (inactive) | > 100 µM (inactive) | > 100 µM (inactive) | > 100 µM (inactive) |  | > 100 µM (inactive)
5 | N#C/C(=C\c1cccc(O)c1O)C(N)=O | 65.3 µM (inactive) | 41.3 µM (inactive) | 14.1 µM (inactive) | 21.5 µM (inactive) | 20.3 µM (inactive) | 57.8 µM | 93.1 µM (inactive) | 38.6 µM (inactive) | 40.9 µM (inactive) | > 100 µM (inactive) | 60.8 µM (inactive) | 18.3 µM (inactive) | 37.9 µM (inactive) |  | 57.5 µM (inactive) | 34.8 µM (inactive) | 34.5 µM (inactive) | 28.8 µM (inactive) | 39.5 µM (inactive) | 58.5 µM (inactive)
6 | O=P1(N2CCOCC2)OCCO1 | > 100 µM (inactive) | > 100 µM (inactive) | > 100 µM (inactive) | > 100 µM (inactive) | > 100 µM (inactive) | > 100 µM | > 100 µM (inactive) | > 100 µM (inactive) |  | > 100 µM (inactive) |  | > 100 µM (inactive) | > 100 µM (inactive) | > 100 µM (inactive) | > 100 µM (inactive) | > 100 µM (inactive) | > 100 µM (inactive) |  | > 100 µM (inactive) | > 100 µM (inactive)
7 | COC(CN(C(C)=O)C1CCC2(SCCS2)c2[nH]c3ccccc3c21)OC (stereo not given) | > 100 µM (inactive) | > 100 µM (inactive) | > 100 µM (inactive) | > 100 µM (inactive) | > 100 µM (inactive) | > 100 µM | > 100 µM (inactive) | > 100 µM (inactive) | > 100 µM (inactive) | > 100 µM (inactive) | > 100 µM (inactive) | > 100 µM (inactive) | > 100 µM (inactive) | > 100 µM (inactive) | > 100 µM (inactive) | 72.1 µM (inactive) | > 100 µM (inactive) |  | 0.773 µM (active) | > 100 µM (inactive)
8 | CCCCOP1(=O)C=CC(Cl)=C(C)C1 (stereo not given) | > 100 µM (inactive) | 68.7 µM (inactive) | 4.11 µM (inactive) | 33 µM (inactive) | > 10 µM (inactive) | 13.1 µM |  | 3.28 µM (inactive) | 24.7 µM (inactive) |  | 21.6 µM (inactive) | 22.3 µM (inactive) | 28.1 µM (inactive) |  | 51.9 µM (inactive) | 70.3 µM (inactive) | 21.2 µM (inactive) |  | > 10 µM (inactive) | 22 µM (inactive)
9 | COC(=O)C1(c2ccc(N(C)C)cc2OC)CCCN(C(=O)Oc2ccccc2[N+](=O)[O-])CCc2c1[nH]c1ccccc21 (stereo not given) | > 100 µM (inactive) | > 100 µM (inactive) |  | > 100 µM (inactive) | > 100 µM (inactive) |  | > 100 µM (inactive) | 78.3 µM (inactive) | > 100 µM (inactive) | > 100 µM (inactive) | > 100 µM (inactive) |  | > 100 µM (inactive) | > 100 µM (inactive) |  | > 100 µM (inactive) | > 100 µM (inactive) | > 100 µM (inactive) | > 100 µM (inactive) | > 100 µM (inactive)
10 | CC(=O)O[C@H]1[C@@H]2OC(=O)[C@@](O)(CC3CCCO3)[C@@H]2CC(=O)[C@](C)(O)CC/C=C(\C)CCC[C@@H]1C (stereo not given in full) | 40.6 µM (inactive) | 19.9 µM (inactive) | 22.7 µM (inactive) | 18.6 µM (inactive) | > 100 µM (inactive) | 34.3 µM | 46.5 µM (inactive) | 24.4 µM (inactive) | 63.2 µM (inactive) | > 100 µM (inactive) | 35.6 µM (inactive) | 26.2 µM (inactive) | > 100 µM (inactive) | 43.6 µM (inactive) | > 100 µM (inactive) | 52.8 µM (inactive) |  |  | 70.3 µM (inactive) | 
11 | O=C(O)c1ccccc1C(=O)c1ccco1 | > 100 µM (inactive) | > 100 µM (inactive) | > 100 µM (inactive) | > 100 µM (inactive) | > 100 µM (inactive) | > 100 µM | > 100 µM (inactive) | > 100 µM (inactive) | > 100 µM (inactive) | > 100 µM (inactive) | > 100 µM (inactive) |  | > 100 µM (inactive) | > 100 µM (inactive) | > 100 µM (inactive) | > 100 µM (inactive) | > 100 µM (inactive) |  | > 100 µM (inactive) | > 100 µM (inactive)
12 | COP(=O)(OC)[C@H](O)[C@H]1C[C@@H]1c1ccccc1 | > 100 µM (inactive) | > 100 µM (inactive) |  | > 100 µM (inactive) | > 100 µM (inactive) | > 100 µM | > 100 µM (inactive) | > 100 µM (inactive) | > 100 µM (inactive) | > 100 µM (inactive) | > 100 µM (inactive) | > 100 µM (inactive) | > 100 µM (inactive) | > 100 µM (inactive) | > 100 µM (inactive) | > 100 µM (inactive) |  | > 100 µM (inactive) | > 100 µM (inactive) | > 100 µM (inactive)
13 | O=C(O)CSCc1cc2c(O)c(c1)Cc1cc(CSCC(=O)O)cc(c1O)Cc1cc(CSCC(=O)O)cc(c1O)Cc1cc(CSCC(=O)O)cc(c1O)C2 | > 100 µM (inactive) | > 100 µM (inactive) | > 100 µM (inactive) | > 100 µM (inactive) | > 100 µM (inactive) | > 100 µM | > 100 µM (inactive) | > 100 µM (inactive) | > 100 µM (inactive) | > 100 µM (inactive) | > 100 µM (inactive) | > 100 µM (inactive) | > 100 µM (inactive) |  | > 100 µM (inactive) | > 100 µM (inactive) | > 100 µM (inactive) | > 100 µM (inactive) | > 100 µM (inactive) | > 100 µM (inactive)
14 | N/C(=N\O)N/N=C\c1cc([N+](=O)[O-])cc([N+](=O)[O-])c1O | 8.51 µM (inactive) | 5.66 µM (inactive) | 6.61 µM (inactive) | 15.3 µM (inactive) | 14.5 µM (inactive) | 6.14 µM |  | 5.26 µM (inactive) | 59.3 µM (inactive) | > 30.5 µM (inactive) | 6.11 µM (inactive) | 16.5 µM (inactive) | 62.1 µM (inactive) | 9.42 µM (inactive) | > 96.2 µM (inactive) | > 100 µM (inactive) | 4.92 µM (inactive) | 25.5 µM (inactive) | 98.2 µM (inactive) | 11.4 µM (inactive)
15 | COc1ccc(Sc2ccccc2N)cc1 | 55 µM (inactive) |  | 14.4 µM (inactive) | 17 µM (inactive) | 41 µM (inactive) | 37 µM | 65.2 µM (inactive) | 41.6 µM (inactive) | 29.1 µM (inactive) | 46.5 µM (inactive) | 60.5 µM (inactive) | 45.9 µM (inactive) | 43.1 µM (inactive) | 22.3 µM (inactive) | > 100 µM (inactive) | 53.7 µM (inactive) | 49 µM (inactive) | > 100 µM (inactive) | 38.5 µM (inactive) | 23.3 µM (inactive)
16 | Nc1nn(CC(O)CO)c(=O)s1 (stereo not given) | > 100 µM (inactive) |  | > 100 µM (inactive) | > 100 µM (inactive) | > 100 µM (inactive) | > 100 µM | > 100 µM (inactive) | > 100 µM (inactive) | > 100 µM (inactive) | > 100 µM (inactive) | > 100 µM (inactive) | > 100 µM (inactive) | > 100 µM (inactive) | > 100 µM (inactive) | > 100 µM (inactive) | > 100 µM (inactive) | > 100 µM (inactive) | > 100 µM (inactive) | > 100 µM (inactive) | > 100 µM (inactive)
